# Reference: publication PMC4867491 (Oncogene, 2015)
# Read-outs that look alike come from different tables or passages of the source.
# Columns and labels:
# Assay type in all cases: cell-based, human
# [1] = system: HeLa-C604F; test: Proliferation/colony formation assay; settings: read-out: median IC50, three independent experiments
# [2] = system: HCT-116-C604Y; test: Proliferation/colony formation assay; settings: read-out: median IC50, three independent experiments
# [3] = system: HCT-116, DLD-1 and U2OS; settings: read-out: IC50 (cell viability)
# [4] = system: HeLa-C604Y; test: Proliferation/colony formation assay; settings: read-out: median IC50, three independent experiments
# [5] = system: DLD-1-S611R; test: Proliferation/colony formation assay; settings: read-out: median IC50, three independent experiments
# [6] = system: HeLa-I598F; test: Proliferation/colony formation assay; settings: read-out: median IC50, three independent experiments
# [7] = system: DLD-1; test: Proliferation/colony formation assay; settings: read-out: median IC50; DLD-1 parental; three independent experiments
# [8] = system: HCT-116; test: Proliferation/colony formation assay; settings: read-out: median IC50; HCT-116 parental; three independent experiments
# [9] = system: HCT-116-I531M; test: Proliferation/colony formation assay; settings: read-out: median IC50, three independent experiments
# [10] = system: HeLa; test: Proliferation/colony formation assay; settings: read-out: median IC50; HeLa parental; three independent experiments
# [11] = three cancer cell lines HCT-116, DLD-1 and U2OS, Supplementary Figures 2a-c
Compound,IC50 [1],IC50 [2],"IC50 [3, 11]",IC50 [4],IC50 [5],IC50 ([3]; Homo sapiens),IC50 [6],IC50 [7],IC50 [8],IC50 [9],IC50 [10]
Cc1cc(N2CCOCC2)ccc1Nc1nc(NC2CCCCC2)c2[nH]cnc2n1 [MPI-0479605],> 2000 nM,> 2000 nM,63 to 153 nM,> 2000 nM,> 2000 nM,–,–,–,–,–,–
CCc1cccc(CC)c1NC(=O)c1nn(C)c2c1CCc1cnc(Nc3ccc(C(=O)NC4CCN(C)CC4)cc3OC(F)(F)F)nc1-2 [NMS-P715],–,> 2000 nM,> 150 nM,> 2000 nM,–,–,–,–,–,–,–
"c1nc2nc(Nc3ccc(N4CCOCC4)cc3)nc(NC3CCCCC3)c2[nH]1 [Reversine, reversine]",–,–,–,–,–,63 to 153 nM,–,–,–,–,–
AZ3146,2740 nM,> 5000 nM,–,> 5000 nM,> 5000 nM,–,3850 nM,719 nM,560 nM,3060 nM,1340 nM
